Laboratory results from patent US7759391B2, “Pharmaceutical composition comprising thiacremonone for treating colon cancer” (Chungbuk National University Industry Academic Cooperation …, priority 2007, dated 2010).
In brackets after ≈: the same amount, converted by molar mass.

Assays:
[1] = biological target: T1, NF-κB (Homo sapiens, UniProt Q04206); experiment: Gel electromobility shift assay (EMSA), NF-κB DNA binding activity, SW620; format: cell-based; conditions: SW620, 30-150 μg/ml, 1 h
T1 construct: endogenous in cells; host or cells: SW620 and HCT116 human colon cancer cells (ATCC)
T1 sequence (Q04206 whole entry): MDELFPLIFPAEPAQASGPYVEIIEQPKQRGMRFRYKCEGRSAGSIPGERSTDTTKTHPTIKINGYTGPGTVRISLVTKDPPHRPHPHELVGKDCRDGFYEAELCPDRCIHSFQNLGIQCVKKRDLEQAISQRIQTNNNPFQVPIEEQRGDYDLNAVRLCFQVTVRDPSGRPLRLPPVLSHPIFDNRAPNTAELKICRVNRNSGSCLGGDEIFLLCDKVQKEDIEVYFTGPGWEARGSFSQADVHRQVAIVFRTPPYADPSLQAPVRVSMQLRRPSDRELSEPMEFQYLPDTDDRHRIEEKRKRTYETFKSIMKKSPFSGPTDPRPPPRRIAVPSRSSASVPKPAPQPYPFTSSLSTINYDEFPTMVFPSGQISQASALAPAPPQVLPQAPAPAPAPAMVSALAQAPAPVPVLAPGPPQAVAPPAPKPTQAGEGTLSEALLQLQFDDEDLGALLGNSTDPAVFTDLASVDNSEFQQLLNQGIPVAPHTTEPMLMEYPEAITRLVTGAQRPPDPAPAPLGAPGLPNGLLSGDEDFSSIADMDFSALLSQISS
T1 sequence (P19838 1-433 partner limits assumed): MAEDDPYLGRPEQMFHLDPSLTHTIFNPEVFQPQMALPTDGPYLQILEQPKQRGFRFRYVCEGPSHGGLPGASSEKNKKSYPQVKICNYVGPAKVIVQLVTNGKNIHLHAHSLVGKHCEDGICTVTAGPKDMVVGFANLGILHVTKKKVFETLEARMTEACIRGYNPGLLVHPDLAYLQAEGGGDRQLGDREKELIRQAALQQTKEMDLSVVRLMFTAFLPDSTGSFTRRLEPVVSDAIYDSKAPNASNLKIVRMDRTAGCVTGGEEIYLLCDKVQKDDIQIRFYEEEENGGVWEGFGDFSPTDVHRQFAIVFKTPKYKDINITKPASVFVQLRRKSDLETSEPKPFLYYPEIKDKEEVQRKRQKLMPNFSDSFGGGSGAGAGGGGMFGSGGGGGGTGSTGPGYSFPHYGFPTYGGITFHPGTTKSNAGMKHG
Protocol: (§1) FIG. 1A: Nuclear extract from SW620 (panel a) and HCT116 (panel b) colon cancer cells treated with thiacremonone (30-150 μg/ml) for 1 h was incubated in binding reactions of ^32P-end-labeled oligonucleotide containing the κB sequence. The activation of NF-κB was investigated using EMSA as described in Materials and Methods. For competition assays, nuclear extracts from cells treated with TNF-α were incubated for 1 h before EMSA with unlabled NF-κB oligonucleotide or labeled NF-κB oligonucleotide. For supershift assays, nuclear extracts from cells treated with TNF-α were incubated for 1 h before EMSA with specific antibodies against the p50 and p65 NF-κB isoforms. SS indicates supershift assay using p65 antibody (panel c). Quantification of band intensities from three independent experimental results performed by densitometry (Imaging System) and the value under each band indicated as fold difference from the untreated control group.
(§2) Gel shift assay was performed according to the manufacturer's recommendations (Promega, Madison, Wis., USA). […] The relative density of the DNA-protein binding bands was scanned by densitometry using MyImage (SLB, Seoul, Korea), and quantified by Labworks 4.0 software (UVP Inc., Upland, Calif., USA).

[2] = biological target: T1, NF-κB; experiment: Gel electromobility shift assay (EMSA), NF-κB DNA binding activity, HCT116; format: cell-based; conditions: HCT116, 30-150 μg/ml, 1 h
Protocol: as §1, §2

[3] = tested on: NF-κB; experiment: NF-κB luciferase reporter assay (pNF-κB-Luc), SW620; format: cell-based, human; conditions: SW620, 30-150 μg/ml, 8 h
Protocol: (§3) FIG. 1B: Colon cancer cells were transfected with pNF-κB-Luc plasmid (5×NF-κB) and then activated with TNF-α (150 U/ml) alone or TNF-α plus different concentrations (30-150 μg/ml) of thiacremonone at 37° C. in both SW620 (panel a and b) and HCT116 (panel c and d) colon cancer cells, and then the luciferase activity was determined. All values represent mean±S.D. of three independent experiments performed in triplicate. RLU is relative to luciferase activity in transfected unstimulated cells. *P<0.05 indicates statistically significant differences from the TNF-α-treated group.
(§4) SW620 and HCT116 human colon cells (2.5×10^5 cells/cm^2) were plated in 24-well plates and transiently transfected with pNF-κB-Luc plasmid (5×NF-κB; Stratagene, La Jolla, Calif., USA) using a mixture of plasmid and lipofectAMINE PLUS in OPTI-MEN according to manufacturer's specifications (Invitrogen, Carlsbad, Calif., USA). The transfected cells were treated with tumor necrosis factor-α (TNF-α) (10 ng/ml) or TPA (50 nM) and different concentrations (30-150 μg/ml) of thiacremonone for 8 h. Luciferase activity was measured by using the luciferase assay kit (Promega, Madison, Wis., USA) according to the manufacturer's instructions (WinGlow, Bad Wildbad, Germany).

[4] = tested on: NF-κB; experiment: NF-κB luciferase reporter assay (pNF-κB-Luc), HCT116; format: cell-based, human; conditions: HCT116, 30-150 μg/ml, 8 h
Protocol: as §3, §4

[5] = tested on: SW620 colon cancer cells; experiment: Cell viability / growth, CCK-8 assay, SW620; format: cell-based; conditions: Homo sapiens, SW-620, read-out: IC50 of cell growth inhibition, heading: IC50 of cell growth inhibition, SW620, 48 h
Protocol: (§5) Panel b of FIGS. 2A-2C: Cell viability was determined by CCK-8 assay as described in Materials and Methods. SW620 (FIG. 2A) and HCT116 (FIG. 2B) colon cancer cells as well as normal cells (Caco-2) (FIG. 2C) were treated with various doses (30-150 μg/ml) of thiacremonone for different times (12-48 h). Values are each the mean±S.D. of three experiments, each performed in triplicate.
(§6) SW620 and HCT116 colon cancer cells were plated at a density of 10^4 cells/well in 96-well plates per 100 μl medium. To determine the appropriate concentration that is not cytotoxic to the cells, the cytotoxic effect was evaluated in cells cultured for 12, 24, 36, and 48 h using the cell counting kit-8 assay kit according to the manufacturer's instructions (Dojindo, Gaithersburg, Md., USA). Briefly, 10 μl of the CCK-8 solution was added to cells cultured for the designated time. The plates were incubated for 1-4 h in the incubator. The resulting color was assayed at […] using a microplate absorbance reader (Sunrise, Tecan, Switzerland). Each assay was carried out in triplicate.

[6] = tested on: HCT116 colon cancer cells; experiment: Cell viability / growth, CCK-8 assay, HCT116; format: cell-based; conditions: Homo sapiens, HCT-116, HCT116, 48 h, read-out: IC50 of cell growth inhibition
Protocol: as §5, §6

[7] = tested on: normal colon Caco-2 cells; experiment: Cell viability, CCK-8 assay, normal cells; format: cell-based; conditions: Caco-2, 30-150 μg/ml, 12-48 h
Protocol: as §5, §6

[8] = tested on: SW620 colon cancer cells; experiment: Apoptosis detection, DAPI/TUNEL staining, SW620; format: cell-based, human; conditions: 24 h
Protocol: (§7) FIG. 3B: The apoptotic index was determined as the DAPI-stained TUNEL-positive cell number counted. Values are mean±S.E.M. of three experiments, each performed in triplicate. *P<0.05 indicates statistically significant differences from the untreated group.
(§8) Apoptosis assay was first performed by using 4,6-diamino-2-phenylindole (DAPI) staining. SW620 and HCT116 human colon cancer cells were cultured in the absence or presence of increasing concentrations of thiacremonone, and induction of apoptotic cell death was evaluated after 24 h. Apoptotic cells were determined by the morphological changes after DAPI staining under fluorescence microscopic observation (DAS microscope, 100× or 200×: Leica Microsystems, Inc., Deefield, Ill., USA). Apoptosis was also evaluated by TUNEL staining assay. In short, cells were cultured on 8-chamber slides. After treatment with thiacremonone (30-150 μg/ml) for 24 h, the cells were washed twice with PBS and fixed by incubation in 4% paraformaldehyde in PBS for 1 h at room temperature. TUNEL assays were performed by using the in situ Cell Death Detection Kit (Roche Diagonostics GmbH, Mannheim, Germany) according to manufacturer's instructions. Total number of cells in a given area was determined by using DAPI and TUNEL staining. The apoptotic index was determined as the number of DAPIstained TUNEL-positive cells divided by the total cell number counted ×100.

[9] = tested on: HCT116 colon cancer cells; experiment: Apoptosis detection, DAPI/TUNEL staining, HCT116; format: cell-based, human; conditions: 24 h
Protocol: as §7, §8

[10] = tested on: SW620 colon cancer cells; experiment: Western blot of apoptosis regulatory proteins, SW620; format: cell-based, human; conditions: SW620, 30-150 μg/ml, 24 h
Protocol: (§9) The cells were treated with different concentrations (30-150 μg/ml) of thiacremonone at 37° C. for 24 h. Equal amounts of total proteins (50 μg/lane) were subjected to 12% SDS-PAGE. Expressions of Bax, cleaved caspase-3, cleaved PARP, Bcl-2, cIAP1/2, XIAP, and β-actin were detected by western blotting using specific antibodies. β-Actin protein was used an internal control. Panel a: SW620 colon cancer cells. Panel b: HCT116 colon cancer cells. Each band is representative of three independent experiments.
(§10) Cultured cells were washed twice with 1×PBS, followed by the addition of 1 ml of PBS, and the cells were scraped into a cold Eppendorf tube. Cells were homogenized with lysis buffer [50 mM Tris pH 8.0, 150 mM NaCl, 0.02% sodium azide, 0.2% SDS, 1 mM PMFS, 10 μl/ml aprotinin, 1% igapel 630 (Sigma-Aldrich, St. Louis, Mo., USA), 10 mM NaF, 0.5 mM EDTA, 0.1 mM EGTA, and 0.5% sodium deoxycholate] and centrifuged at 23,000×g for 15 min. The protein concentration was measured by the Bradford method (Bio-Rad Protein Assay; Bio-Rad Laboratories Inc., Hercules, Calif., USA), and equal amount of proteins (50 μg) were separated on a SDS/12%-polyacrylamide gel and then transferred to a Hybond ECL nitrocellulose membrane (Amersham Pharmacia Biotech Inc., Piscataway, N.J., USA). Blots were blocked for 2 h at room temperature with 5% (w/v) non-fat dried milk in Tris-buffered saline [10 mM Tris (pH 8.0) and 150 mM NaCl] solution containing 0.05% tween-20. […] Immunoreactive proteins were detected with the ECL Western blotting detection system. The relative density of the protein bands was scanned by densitometry using MyImage (SLB) and quantified by Labworks 4.0 software (UVP Inc.).

[11] = tested on: HCT116 colon cancer cells; experiment: Western blot of apoptosis regulatory proteins, HCT116; format: cell-based, human; conditions: HCT116, 30-150 μg/ml, 24 h
Protocol: as §9, §10

[12] = tested on: SW620 xenograft; experiment: SW620 colon xenograft in nude mice; format: in vivo; conditions: for tumor volume, % of sham control group: day 31
From the text: To elucidate the anticancer effect of thiacremonone in vivo, the tumor growth on colon xenograft bearing nude mice following thiacremonone treatments were investigated. In SW620 xenograft studies, thiacremonone was administrated intraperitoneally twice per week for 4 weeks to mice with tumors ranging from 100 to 300 mm3 of tumor volume. The mice were weighted twice per week. The change of body weights between saline and thiacremonone-administrated mice (n=10) was not different during the experiment.
FIG. 5 represents the relative tumor growth delay measured after treatment of thiacremonone (240 and 360 mg/kg for four weeks, n=10) in comparison with the sham control group (saline).

CC1=C(O)C(=O)C(C)(O)S1 (centres unmarked) [thiacremonone, 2,4-dihydroxy-2,5-dimethyl-thiophene-3-one]
DNA binding activity of NF-κB [1]: decreased DNA binding activity of NF-κB in a dose-dependent manner
DNA binding activity of NF-κB [2]: decreased DNA binding activity of NF-κB in a dose-dependent manner
TNF-α and TPA induced NF-κB luciferase activity [3]: inhibited TNF-α and TPA induced NF-κB luciferase activity dose-dependently
TNF-α and TPA induced NF-κB luciferase activity [4]: inhibited TNF-α and TPA induced NF-κB luciferase activity dose-dependently
IC50 [5]: 105 µg/mL (≈ 655 µM)
IC50 [6]: 130 µg/mL (≈ 812 µM)
cytotoxic effect [7]: no cytotoxic effect
apoptotic cell number (DAPI-positive TUNEL-stained cells) ([8]; SW620, 30 μg/ml): 0%
apoptotic cell number (DAPI-positive TUNEL-stained cells) ([8]; SW620, 60 μg/ml): 0%
apoptotic cell number (DAPI-positive TUNEL-stained cells) ([8]; SW620, 90 μg/ml): 11%
apoptotic cell number (DAPI-positive TUNEL-stained cells) ([8]; SW620, 120 μg/ml): 25%
apoptotic cell number (DAPI-positive TUNEL-stained cells) ([8]; SW620, 150 μg/ml): 97%
apoptotic cell number ([9]; HCT116, 30 μg/ml): 0%
apoptotic cell number ([9]; HCT116, 60 μg/ml): 0%
apoptotic cell number ([9]; HCT116, 90 μg/ml): 29%
apoptotic cell number ([9]; HCT116, 120 μg/ml): 95%
apoptotic cell number ([9]; HCT116, 150 μg/ml): 98%
Expressions of apoptotic proteins Bax, cleaved caspases 3, cleaved PARP [10]: increased
expressions of antiapoptotic protein Bcl-2, cIAP1/2, XIAP and cyclin D1 [10]: decreased
iNOS and COX-2 expression [10]: inhibited the expressions dose-dependently
Expressions of apoptotic proteins Bax, cleaved caspases 3, cleaved PARP [11]: increased
expressions of antiapoptotic protein Bcl-2, cIAP1/2, XIAP and cyclin D1 [11]: decreased
iNOS and COX-2 expression [11]: inhibited the expressions dose-dependently
tumor volume, % of sham control group ([12]; 240 mg/kg intraperitoneally twice per week for 4 weeks): 92.5%
tumor volume, % of sham control group ([12]; 360 mg/kg intraperitoneally twice per week for 4 weeks): 59.1%
change of body weights versus saline ([12]; intraperitoneally twice per week for 4 weeks, nude mice): not different
